Data set [1] relates to Green Peach Aphid (Myzus persicae) (MYZUPE). The data set can be described thus: Bioassay on Green Peach Aphid (GPA), foliar spray on cabbage seedlings. The data set is classed as in vivo. The conditions noted are these: 200 ppm spray on cabbage leaves, graded after three days, live aphids, Abbott's correction. The procedure:
Several molecules disclosed herein were tested against GPA using procedures described below.
Cabbage seedling grown in 3-in pots, with 2-3 small (3-5 cm) true leaves, were used as test substrate. The seedlings were infested with […] (wingless adult and nymph stages) one day prior to chemical application. Four pots with individual seedlings were used for each treatment. Test compounds (2 mg) were dissolved in 2 mL of acetone/MeOH (1:1) solvent, forming stock solutions of 1000 ppm test compound. The stock solutions were diluted 5× with 0.025% Tween 20 in water to obtain the solution at 200 ppm test compound. A hand-held aspirator-type sprayer was used for spraying a solution to both sides of the cabbage leaves until runoff. Reference plants (solvent check) were sprayed with the diluent only containing 20% by volume acetone/MeOH (1:1) solvent. Treated plants were held in a holding room for three days at approximately 25° C. and ambient relative humidity (RH) prior to grading. Evaluation was conducted by counting the number of live aphids per plant under a microscope. Percent Control was measured by using Abbott's correction formula (W. S. Abbott, “A Method of Computing the Effectiveness of an Insecticide” J. Econ. Entomol 18 (1925), pp. 265-267) as follows. Corrected % Control=100*(X−Y)/X • where • X=No. of live aphids on solvent check plants and • Y=No. of live aphids on treated plants
The results are indicated in the table entitled “Table 1: GPA (MYZUPE) and sweetpotato whitefly-crawler (BEMITA) Rating Table”.

Data set [2] has as its system Sweetpotato Whitefly Crawler (Bemisia tabaci) (BEMITA). In words: Bioassay on Sweetpotato Whitefly Crawler, foliar spray on cotton plants. The data set is classed as in vivo. Conditions: 200 ppm spray on cotton leaf, graded after 8-9 days, live nymphs, Abbott's correction. The procedure:
Cotton plants grown in 3-inch pots, with 1 small (3-5 cm) true leaf, were used at test substrate. The plants were placed in a room with whitely adults. Adults were allowed to deposit eggs for 2-3 days. After a 2-3 day egg-laying period, plants were taken from the adult whitefly room. Adults were blown off leaves using a hand-held Devilbliss sprayer (23 psi). Plants with egg infestation (100-300 eggs per plant) were placed in a holding room for 5-6 days at 82° F. and 50% RH for egg hatch and crawler stage to develop. Four cotton plants were used for each treatment. Compounds (2 mg) were dissolved in 1 mL of acetone solvent, forming stock solutions of 2000 ppm. The stock solutions were diluted 10× with 0.025% Tween 20 in water to obtain a test solution at 200 ppm. A hand-held Devilbliss sprayer was used for spraying a solution to both sides of cotton leaf until runoff. Reference plants (solvent check) were sprayed with the diluent only. Treated plants were held in a holding room for 8-9 days at approximately 82° F. and 50% RH prior to grading. Evaluation was conducted by counting the number of live nymphs per plant under a microscope.

Molecules are shown by their SMILES.

Turning to `O=C(CCSCCC(F)(F)F)Nc1c[nH]nc1Cl` [Compound 2.3, N-(3-chloro-1H-pyraxol-4-yl)-3-((3,3,3,trifluoropropyl)thio)propanamide], in data set [1], the “MYZUPE rating (% Control of Mortality)” value is “B (More than 0-Less than 80)”. In addition, the “BEMITA rating (% Control of Mortality)” value in data set [2] is given as “B (More than 0-Less than 80)”.

Take `CCN(C(=O)CC[S+]([O-])CCC(F)(F)F)c1cn(-c2cccnc2)nc1Cl` (stereo not shown) [Compound 7.3, N-(3-chloro-1-(pyridin-3-yl)-1H-pyrazol-4-yl)-N-ethyl-3-((3,3,3-trifluoropropyl)sulfoxo)propanamide]: in data set [1], the “MYZUPE rating (% Control of Mortality)” value was “A (80-100)”. The “BEMITA rating (% Control of Mortality)” value in data set [2] was “A (80-100)”.

`O=C(CCSCCC(F)(F)F)Nc1cn(-c2cccnc2)nc1Cl` [Compound 5.3, N-(3-chloro-1-(pyridin-3-yl)-1H-pyrazol-4-yl)-3-((3,3,3-trifluoropropyl)thio)propanamide]: the “MYZUPE rating (% Control of Mortality)” value in data set [1] was “A (80-100)”. Further, in data set [2], the “BEMITA rating (% Control of Mortality)” value is “B (More than 0-Less than 80)”.

With `Cl.Nc1c[nH]nc1Cl` [Compound 1a, 3-chloro-1H-pyrazol-4-amine Hydrochloride], the “MYZUPE rating (% Control of Mortality)” value in data set [1] is reported as “B (More than 0-Less than 80)”. The “BEMITA rating (% Control of Mortality)” value in data set [2] was “B (More than 0-Less than 80)”.

In the case of `CCN(C(=O)CCSCCC(F)(F)F)c1cn(-c2cccnc2)nc1Cl` [Compound 6.3, N-(3-chloro-1-(pyridin-3-yl)-1H-pyrazol-4-yl)-N-ethyl-3-((3,3,3-trifluoropropyl)thio)propanamide], the “MYZUPE rating (% Control of Mortality)” value in data set [1] is “A (80-100)”. In addition, the “BEMITA rating (% Control of Mortality)” value in data set [2] is on record as “A (80-100)”.

Source of the values: patent publication US9447048B2, “Processes for the preparation of pesticidal compounds” (Dow AgroSciences LLC, priority 2013, dated 2016).
